# Measured values: patent US20240189318A1, “THERAPEUTIC REGIMENS OF AN INHIBITOR OF THE ENZYMATIC ACTIVITY OF BRG1 AND BRM” (FOGHORN THERAPEUTICS INC., priority 2021, published 2024)
# Like-named read-outs stand apart in the source and are kept apart here.
# Experiments:
# CYP2B6 [1] = target: T1, CYP2B6 (Homo sapiens, UniProt P20813); assay: Depletion by recombinant CYP enzyme, CYP2B6; type: in vitro ADME; design: from tissue; host or cells: pooled human liver microsomes; conditions: recombinant 2B6; 0.1 μM
# T1 sequence (P20813 1-491): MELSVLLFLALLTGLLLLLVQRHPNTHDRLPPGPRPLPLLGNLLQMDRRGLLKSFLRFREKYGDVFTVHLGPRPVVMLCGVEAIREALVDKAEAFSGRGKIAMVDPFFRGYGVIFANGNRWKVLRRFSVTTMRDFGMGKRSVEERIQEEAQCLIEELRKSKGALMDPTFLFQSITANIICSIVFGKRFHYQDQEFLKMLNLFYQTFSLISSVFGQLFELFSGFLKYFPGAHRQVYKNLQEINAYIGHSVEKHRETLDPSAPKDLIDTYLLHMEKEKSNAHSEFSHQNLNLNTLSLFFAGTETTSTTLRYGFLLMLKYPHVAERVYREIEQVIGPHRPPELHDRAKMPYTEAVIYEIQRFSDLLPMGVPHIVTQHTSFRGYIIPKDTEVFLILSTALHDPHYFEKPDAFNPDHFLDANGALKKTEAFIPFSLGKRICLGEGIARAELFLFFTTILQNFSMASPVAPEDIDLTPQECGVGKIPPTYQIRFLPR
# CYP2C19 = CYP2C19 (Homo sapiens, UniProt P33261); assay: Depletion by recombinant CYP enzyme, CYP2C19; type: in vitro ADME; design: from tissue; host or cells: pooled human liver microsomes; conditions: recombinant 2C19
# [2] = Oral absorption in dogs, capsule; type: in vivo; conditions: administered in a capsule
# CYP3A4 = CYP3A4 (Homo sapiens, UniProt P08684); assay: Depletion by recombinant CYP enzyme, CYP3A4; type: in vitro ADME; conditions: recombinant 3A4
# CYP3A activity = assay: CYP enzyme activity in cultured human hepatocytes, CYP3A4; type: in vitro ADME
# [3] = tested on: cultured human hepatocytes; assay: Cytotoxicity to cultured human hepatocytes (morphology, LDH release); conditions: second study, 0.3 to 50 nM, 72 hours
# BRM = BRM (Homo sapiens, UniProt P51531); assay: biochemical
# OATP1B3 = target: T2, OATP1B3 (Homo sapiens, UniProt Q9NPD5); assay: Transporter inhibition in MDCK-II cells, OATP1B3; type: in vitro ADME; conditions: probe CCK-8 2 μM
# T2 construct: expressed in transfected cells; host or cells: MDCK-II
# CYP3A4 mRNA = assay: CYP mRNA level (qRT-PCR) in cultured human hepatocytes, CYP3A4; type: in vitro ADME; conditions: 72 hours
# OAT1 = target: T3, OAT1 (Homo sapiens, UniProt Q4U2R8); assay: Transporter inhibition in MDCK-II cells, OAT1; type: in vitro ADME; conditions: for IC50: probe p-aminohippurate 2 μM
# T3 construct: expressed in transfected cells; host or cells: MDCK-II
# T3 sequence (Q4U2R8 1-563): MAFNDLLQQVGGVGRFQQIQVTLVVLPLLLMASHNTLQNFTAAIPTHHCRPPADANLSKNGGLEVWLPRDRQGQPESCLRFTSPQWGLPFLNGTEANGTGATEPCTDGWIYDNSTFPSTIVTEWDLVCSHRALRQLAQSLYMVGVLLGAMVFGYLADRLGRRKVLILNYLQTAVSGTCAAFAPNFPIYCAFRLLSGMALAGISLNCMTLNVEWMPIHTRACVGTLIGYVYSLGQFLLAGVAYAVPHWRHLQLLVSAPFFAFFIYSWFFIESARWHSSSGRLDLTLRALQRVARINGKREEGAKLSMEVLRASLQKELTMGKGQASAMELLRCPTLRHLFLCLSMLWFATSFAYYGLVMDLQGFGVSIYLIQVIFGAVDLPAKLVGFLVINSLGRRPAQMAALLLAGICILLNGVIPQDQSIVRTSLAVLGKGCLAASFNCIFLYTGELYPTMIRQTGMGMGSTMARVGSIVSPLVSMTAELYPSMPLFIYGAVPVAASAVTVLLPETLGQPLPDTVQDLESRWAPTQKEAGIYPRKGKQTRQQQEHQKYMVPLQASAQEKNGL
# CHD4 enzyme = CHD4 enzyme (Homo sapiens, UniProt Q14839); assay: ADP-Glo ATPase assay, CHD4; type: biochemical; conditions: concentrations up to 200 μM (n=3)
# [4] = tested on: 92-1 uveal melanoma cells; assay: 92-1 uveal melanoma xenograft, Example 16; type: in vivo
# CYP2B6 [5] = target: T1, CYP2B6; assay: CYP enzyme inhibition in pooled human liver microsomes, CYP2B6; conditions: for inhibition at 30 µM: human, microsomes, Enzyme activity (% inhibition), CYP2B6, probe Efavirenz
# [6] = Bidirectional transport in MDCK control cells (passive permeability); type: in vitro ADME; conditions: dog; for Papp B→A at 1 μM / Papp B→A at 50 μM / Papp A→B at 1 μM / Papp A→B at 10 μM / Papp B→A at 10 μM / Papp A→B at 50 μM: MDCK; for Papp A→B at 10 μM / Papp B→A at 10 μM: 10 μM compound of formula (I)
# MDCK control cells = assay: as above; type: in vitro ADME; conditions: MDCK control cells
# 92-1 cells = assay: 3-day cell proliferation assay (CellTiter-Glo); conditions: Homo sapiens, 72 h, read-out: mean IC50, cell proliferation
# 2C19 = target: T4, 2C19 (Homo sapiens, UniProt P33261); assay: Selective chemical inhibition of compound of formula (I) depletion in human liver microsomes, CYP2C19; type: in vitro ADME; conditions: reaction phenotyping
# T4 construct: from tissue; host or cells: human liver microsomes
# CYP3a23 mRNA = assay: CYP mRNA expression in cultured rat hepatocytes, CYP3a23; type: in vitro ADME; conditions: 0.3 to 100 nM
# [7] = BCRP assay, 50 μM compound of formula (I)
# [8] = P-gp assay, 1 μM compound of formula (I)
# CYP2C19, sequence (P33261 whole entry): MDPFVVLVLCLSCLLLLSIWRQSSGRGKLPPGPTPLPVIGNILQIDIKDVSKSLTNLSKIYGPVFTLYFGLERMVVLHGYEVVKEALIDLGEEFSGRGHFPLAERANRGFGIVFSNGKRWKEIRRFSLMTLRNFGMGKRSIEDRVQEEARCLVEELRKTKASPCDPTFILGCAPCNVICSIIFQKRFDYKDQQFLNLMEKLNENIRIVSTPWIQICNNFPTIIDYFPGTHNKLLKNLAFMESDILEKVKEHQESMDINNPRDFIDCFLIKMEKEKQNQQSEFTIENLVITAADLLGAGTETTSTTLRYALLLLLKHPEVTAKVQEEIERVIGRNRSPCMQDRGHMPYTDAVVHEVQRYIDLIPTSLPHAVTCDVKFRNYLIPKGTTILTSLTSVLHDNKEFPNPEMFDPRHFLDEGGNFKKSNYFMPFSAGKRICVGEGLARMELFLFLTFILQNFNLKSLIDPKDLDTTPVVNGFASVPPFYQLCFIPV
# CYP3A4, sequence (P08684 whole entry): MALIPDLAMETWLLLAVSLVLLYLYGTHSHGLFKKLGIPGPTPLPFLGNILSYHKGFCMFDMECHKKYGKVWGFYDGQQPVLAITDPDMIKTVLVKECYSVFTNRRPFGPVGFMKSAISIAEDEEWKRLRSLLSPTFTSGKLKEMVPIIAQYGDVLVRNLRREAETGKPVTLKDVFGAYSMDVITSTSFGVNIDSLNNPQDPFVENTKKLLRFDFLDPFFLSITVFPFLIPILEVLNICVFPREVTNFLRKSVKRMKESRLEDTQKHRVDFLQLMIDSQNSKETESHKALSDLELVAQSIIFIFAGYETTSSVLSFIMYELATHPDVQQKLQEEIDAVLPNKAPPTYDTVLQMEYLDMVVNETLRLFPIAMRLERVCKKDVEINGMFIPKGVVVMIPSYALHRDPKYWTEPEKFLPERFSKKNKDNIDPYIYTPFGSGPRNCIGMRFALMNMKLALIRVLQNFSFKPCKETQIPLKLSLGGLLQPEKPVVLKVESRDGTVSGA
# T2 sequence (Q9NPD5 whole entry): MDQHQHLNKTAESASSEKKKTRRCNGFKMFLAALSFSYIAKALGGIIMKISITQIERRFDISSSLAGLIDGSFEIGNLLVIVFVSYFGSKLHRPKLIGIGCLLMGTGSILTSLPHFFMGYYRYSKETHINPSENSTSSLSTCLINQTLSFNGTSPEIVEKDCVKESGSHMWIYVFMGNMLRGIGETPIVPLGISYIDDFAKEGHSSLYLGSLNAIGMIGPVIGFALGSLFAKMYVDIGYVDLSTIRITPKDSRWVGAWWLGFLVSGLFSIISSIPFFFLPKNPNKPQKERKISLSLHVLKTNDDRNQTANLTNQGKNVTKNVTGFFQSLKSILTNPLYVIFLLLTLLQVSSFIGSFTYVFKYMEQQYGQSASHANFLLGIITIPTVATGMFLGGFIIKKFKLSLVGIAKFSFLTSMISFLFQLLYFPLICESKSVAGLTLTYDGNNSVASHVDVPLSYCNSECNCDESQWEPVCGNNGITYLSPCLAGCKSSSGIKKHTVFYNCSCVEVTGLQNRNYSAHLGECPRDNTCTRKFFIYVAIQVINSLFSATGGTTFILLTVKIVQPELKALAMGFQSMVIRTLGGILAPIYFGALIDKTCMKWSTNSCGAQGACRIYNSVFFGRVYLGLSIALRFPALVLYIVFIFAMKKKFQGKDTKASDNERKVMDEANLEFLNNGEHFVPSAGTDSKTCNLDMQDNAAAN
# BRM, sequence (P51531 whole entry): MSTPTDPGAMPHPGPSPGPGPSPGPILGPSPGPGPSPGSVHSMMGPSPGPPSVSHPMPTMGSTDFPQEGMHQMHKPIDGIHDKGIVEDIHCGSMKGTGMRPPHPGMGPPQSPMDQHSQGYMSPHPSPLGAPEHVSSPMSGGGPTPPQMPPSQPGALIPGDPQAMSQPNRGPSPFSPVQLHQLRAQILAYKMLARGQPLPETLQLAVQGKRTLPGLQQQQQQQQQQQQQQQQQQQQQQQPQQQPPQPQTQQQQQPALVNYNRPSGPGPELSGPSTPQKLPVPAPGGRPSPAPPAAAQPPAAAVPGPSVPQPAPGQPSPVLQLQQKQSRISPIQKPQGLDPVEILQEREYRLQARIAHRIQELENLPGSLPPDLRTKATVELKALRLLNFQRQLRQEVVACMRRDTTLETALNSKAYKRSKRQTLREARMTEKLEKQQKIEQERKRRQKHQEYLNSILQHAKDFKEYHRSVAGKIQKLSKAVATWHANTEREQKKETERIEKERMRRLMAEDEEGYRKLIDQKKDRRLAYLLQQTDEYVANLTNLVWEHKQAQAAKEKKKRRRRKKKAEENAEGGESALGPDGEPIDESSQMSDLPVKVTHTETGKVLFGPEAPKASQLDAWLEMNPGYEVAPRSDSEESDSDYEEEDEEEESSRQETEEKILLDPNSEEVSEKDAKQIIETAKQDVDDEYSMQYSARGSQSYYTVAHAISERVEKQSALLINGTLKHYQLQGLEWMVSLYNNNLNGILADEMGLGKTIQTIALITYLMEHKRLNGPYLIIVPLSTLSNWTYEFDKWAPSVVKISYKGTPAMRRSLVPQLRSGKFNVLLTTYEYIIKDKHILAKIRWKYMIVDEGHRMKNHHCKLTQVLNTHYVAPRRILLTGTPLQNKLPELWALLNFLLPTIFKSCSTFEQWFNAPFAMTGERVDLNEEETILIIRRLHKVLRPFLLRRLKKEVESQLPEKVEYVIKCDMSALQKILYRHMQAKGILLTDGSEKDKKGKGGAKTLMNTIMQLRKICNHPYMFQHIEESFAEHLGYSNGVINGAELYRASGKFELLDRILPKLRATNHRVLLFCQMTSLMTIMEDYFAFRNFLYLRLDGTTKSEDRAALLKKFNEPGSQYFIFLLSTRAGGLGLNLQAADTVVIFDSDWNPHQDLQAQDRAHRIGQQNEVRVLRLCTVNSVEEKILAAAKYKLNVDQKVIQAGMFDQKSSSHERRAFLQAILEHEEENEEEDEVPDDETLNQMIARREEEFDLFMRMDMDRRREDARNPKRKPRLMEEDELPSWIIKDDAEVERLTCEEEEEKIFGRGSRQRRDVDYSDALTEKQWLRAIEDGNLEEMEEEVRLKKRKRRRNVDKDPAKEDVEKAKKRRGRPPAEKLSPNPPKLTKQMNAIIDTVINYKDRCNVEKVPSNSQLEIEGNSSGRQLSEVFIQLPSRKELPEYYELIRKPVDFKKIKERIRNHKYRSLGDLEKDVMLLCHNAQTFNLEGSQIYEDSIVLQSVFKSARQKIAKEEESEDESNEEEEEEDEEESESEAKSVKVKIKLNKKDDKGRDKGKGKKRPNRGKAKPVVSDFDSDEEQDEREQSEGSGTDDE
# T4 sequence (P33261 whole entry): as the sequence (P33261 whole entry) above
compound,measurement,setting,value
"COC[C@H](NC(=O)c1ccn(S(C)(=O)=O)c1)C(=O)Nc1nc(-c2cccc(N3C[C@@H](C)O[C@@H](C)C3)n2)cs1 [compound of formula (I), N-((S)-1-((4-(6-(cis-2,6-dimethylmorpholino)pyridin-2-yl)thiazol-2-yl)amino)-3-methoxy-1-oxopropan-2-yl)-1-(methylsulfonyl)-1H-pyrrole-3-carboxamide]",% Remaining of Compound of Formula (I),CYP2B6 [1],85.3%
same,% Remaining of Compound of Formula (I),CYP2C19; 0.1 μM,80.5%
same,% Remaining of Compound of Formula (I),CYP2C19; 1 μM,95.0%
same,oral absorption,[2],good oral absorption
same,% Remaining of Compound of Formula (I),CYP3A4; 0.1 μM,0.0%
same,% Remaining of Compound of Formula (I),CYP3A4; 1 μM,1.2%
same,effect on CYP3A activity,CYP3A activity; 0.3 to 50 nM,minimal
same,decrease in CYP3A activity,CYP3A activity; concentrations 1 to 50 nM,≤ 32%
same,cytotoxicity to cultured human hepatocytes,[3],no evidence of cytotoxicity
same,IC50,BRM,4.5 nM
same,IC50,"OATP1B3; OATP1B3, corrected, read-out: IC50 corrected for non-specific binding",2680 nM
same,IC50,"OATP1B3; OATP1B3 in MDCK-II cells, read-out: Estimated IC50 using nominal concentrations",11400 nM
same,concentrations at which CYP3A4 mRNA expression was down-regulated (>50% decrease),CYP3A4 mRNA,≥ 1 nM
same,IC50,"OAT1; OAT1, corrected for difference between measured and nominal concentrations, read-out: IC50 corrected for non-specific binding",> 11800 nM
same,IC50,"OAT1; OAT1 in MDCK-II cells, read-out: Estimated IC50 using nominal concentrations",> 50000 nM
same,inhibition toward OAT1,OAT1; nominal test concentrations up to 50 μM,minimal inhibition
same,inhibition of the ATPase activity of the CHD4 enzyme,CHD4 enzyme,did not inhibit
same,tumor response at the highest dose,"[4]; […], once daily oral gavage",tumor regression
same,tolerability based on % body weight change,[4]; all treatments,well tolerated
same,tumor growth inhibition,"[4]; nude mice, 92-1 xenograft, once daily oral gavage, 3 weeks, increasing doses",tumor growth inhibition in a dose-dependent manner
same,IC50,CYP2B6 [5],> 30000 nM
same,direct inhibitory activity (% inhibition) toward CYP2B6,"CYP2B6 [5]; PHLM, concentrations up to 30 μM",< 50%
same,inhibition at 30 µM,"CYP2B6 [5]; 30 Minutes Pre-incubation with NADPH, PHLM",-10%
same,inhibition at 30 µM,"CYP2B6 [5]; 30 Minutes Pre-incubation without NADPH, PHLM",-6%
same,inhibition at 30 µM,"CYP2B6 [5]; No Pre-incubation, PHLM",7.6%
same,Papp B→A at 1 μM,[6],18.2 ×10⁻⁶ cm/s
same,Papp B→A at 50 μM,[6],18.5 ×10⁻⁶ cm/s
same,Papp A→B at 1 μM,"[6]; BCRP assay, 1 μM compound of formula (I)",26 ×10⁻⁶ cm/s
same,Papp A→B at 10 μM,[6]; BCRP assay,25.4 ×10⁻⁶ cm/s
same,Papp B→A at 10 μM,[6]; BCRP assay,20.9 ×10⁻⁶ cm/s
same,Papp A→B at 50 μM,[6]; [7],21.3 ×10⁻⁶ cm/s
same,Papp B→A at 50 μM,[6]; [7],19.2 ×10⁻⁶ cm/s
same,Papp A→B at 1 μM,[6]; [8],28.8 ×10⁻⁶ cm/s
same,Papp B→A at 1 μM,[6]; [8],21 ×10⁻⁶ cm/s
same,Papp A→B at 10 μM,[6]; P-gp assay,31 ×10⁻⁶ cm/s
same,Papp B→A at 10 μM,[6]; P-gp assay,23.6 ×10⁻⁶ cm/s
same,Papp A→B at 50 μM,"[6]; P-gp assay, 50 μM compound of formula (I)",25.5 ×10⁻⁶ cm/s
same,Papp,"[6]; MDCK control cells, read-out: apparent permeability coefficient (Papp) (B→A) or Papp (A→B)",≥ 15 ×10⁻⁶ cm/s
same,passive permeability,MDCK control cells,high passive permeability
same,IC50,92-1 cells,1.13 nM
same,role of CYP2C19 in metabolism in human liver microsomes,2C19,possible involvement of CYP2C19 to a lesser extent
same,concentrations at which CYP3a23 mRNA expression was decreased ≥50%,CYP3a23 mRNA,≥ 10 nM
